Assay results published in the supplement of paper PMC10307832.

Columns and labels:
Experiment in all cases: relative viability (nuclei count vs DMSO), 5 days (fraction); higher = more cells survive
[1] = test system: LOU-NH91
Method in brief: (§1)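 Relative viability equals treated-well nuclei counts divided by vehicle-well nuclei counts. Counts came from 4× images of lung cancer cell lines grown in 1536-well plates for 5 days after pin-tool dosing on the day after seeding. Dosing used one drug alone or a fixed anchor-drug dose plus five library-drug doses (not always all listed) in √10 steps, and values are medians of duplicate plates.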

[2] = test system: NCI-H647
Method in brief: as §1

[3] = test system: SK-LU-1
Method in brief: as §1

[4] = test system: LU99A
Method in brief: as §1

[5] = test system: LK-2
Method in brief: as §1

[6] = test system: EKVX
Method in brief: as §1

[7] = test system: BEN
Method in brief: as §1

[8] = test system: COR-L 105
Method in brief: as §1

[9] = test system: EMC-BAC-2
Method in brief: as §1

[10] = test system: NCI-H1734
Method in brief: as §1

[11] = test system: NCI-H1437
Method in brief: as §1

[12] = test system: HCC-78
Method in brief: as §1

[13] = test system: NCI-H2085
Method in brief: as §1

[14] = test system: NCI-H2023
Method in brief: as §1

[15] = test system: UMC-11
Method in brief: as §1

[16] = test system: EPLC-272H
Method in brief: as §1

[17] = test system: NCI-H1792
Method in brief: as §1

[18] = test system: HCC-827
Method in brief: as §1

[19] = test system: NCI-H1650
Method in brief: as §1

[20] = test system: SW 900
Method in brief: as §1

[21] = test system: NCI-H522
Method in brief: as §1

[22] = test system: NCI-H358
Method in brief: as §1

[23] = test system: NCI-H650
Method in brief: as §1

## Oc1nc(-c2ccc(C(F)(F)F)cc2)nc2c1CSCC2 [XAV939] + CC1(C)CCC(c2ccc(Cl)cc2)=C(CN2CCN(c3ccc(C(=O)NS(=O)(=O)c4ccc(N[C@H](CCN5CCOCC5)CSc5ccccc5)c(S(=O)(=O)C(F)(F)F)c4)cc3)CC2)C1 [Navitoclax] (partner 0.5 µM)
[1]; first compound 0.08 µM
  relative viability: 0.636
[1]; first compound 0.253 µM
  relative viability: 0.627
[1]; first compound 0.8 µM
  relative viability: 0.692
[1]; first compound 2.53 µM
  relative viability: 0.652
[2]; first compound 0.08 µM
  relative viability: 1.18
[2]; first compound 0.253 µM
  relative viability: 0.94
[2]; first compound 0.8 µM
  relative viability: 0.881
[2]; first compound 2.53 µM
  relative viability: 0.877
[3]; first compound 0.08 µM
  relative viability: 0.674
[3]; first compound 0.253 µM
  relative viability: 0.9
[3]; first compound 0.8 µM
  relative viability: 0.714
[3]; first compound 2.53 µM
  relative viability: 0.791
[4]; first compound 0.08 µM
  relative viability: 0.939
[4]; first compound 0.253 µM
  relative viability: 0.708
[4]; first compound 0.8 µM
  relative viability: 0.683
[4]; first compound 2.53 µM
  relative viability: 0.708
[5]; first compound 0.08 µM
  relative viability: 1.07
[5]; first compound 0.253 µM
  relative viability: 0.757
[5]; first compound 0.8 µM
  relative viability: 0.928
[5]; first compound 2.53 µM
  relative viability: 0.631
[6]; first compound 0.08 µM
  relative viability: 1.02
[6]; first compound 0.253 µM
  relative viability: 0.814
[6]; first compound 0.8 µM
  relative viability: 0.57
[6]; first compound 2.53 µM
  relative viability: 0.557
[7]; first compound 0.08 µM
  relative viability: 0.0604
[7]; first compound 0.253 µM
  relative viability: 0.0746
[7]; first compound 0.8 µM
  relative viability: 0.0568
[8]; first compound 0.08 µM
  relative viability: 0.754
[8]; first compound 0.253 µM
  relative viability: 0.62
[8]; first compound 0.8 µM
  relative viability: 0.637
[8]; first compound 2.53 µM
  relative viability: 0.458
[9]; first compound 0.08 µM
  relative viability: 1.28
[9]; first compound 0.253 µM
  relative viability: 1.04
[9]; first compound 0.8 µM
  relative viability: 1.1
[9]; first compound 2.53 µM
  relative viability: 0.793
[10]; first compound 0.08 µM
  relative viability: 0.921
[10]; first compound 0.253 µM
  relative viability: 0.866
[10]; first compound 0.8 µM
  relative viability: 0.856
[10]; first compound 2.53 µM
  relative viability: 0.855
[11]; first compound 0.08 µM
  relative viability: 1.14
[11]; first compound 0.253 µM
  relative viability: 0.931
[11]; first compound 0.8 µM
  relative viability: 1.12
[11]; first compound 2.53 µM
  relative viability: 0.888
[12]; first compound 0.08 µM
  relative viability: 0.842
[12]; first compound 0.253 µM
  relative viability: 0.736
[12]; first compound 0.8 µM
  relative viability: 0.825
[12]; first compound 2.53 µM
  relative viability: 0.613
[13]; first compound 0.08 µM
  relative viability: 1.1
[13]; first compound 0.253 µM
  relative viability: 1.1
[13]; first compound 0.8 µM
  relative viability: 1.13
[13]; first compound 2.53 µM
  relative viability: 0.882
[14]; first compound 0.08 µM
  relative viability: 0.968
[14]; first compound 0.253 µM
  relative viability: 0.843
[14]; first compound 0.8 µM
  relative viability: 0.862
[14]; first compound 2.53 µM
  relative viability: 0.827
[15]; first compound 0.08 µM
  relative viability: 0.318
[15]; first compound 0.8 µM
  relative viability: 0.3
[15]; first compound 2.53 µM
  relative viability: 0.271
[16]; first compound 0.08 µM
  relative viability: 1.18
[16]; first compound 0.253 µM
  relative viability: 1.08
[16]; first compound 0.8 µM
  relative viability: 1.19
[16]; first compound 2.53 µM
  relative viability: 1.11
[17]; first compound 0.08 µM
  relative viability: 0.595
[17]; first compound 0.253 µM
  relative viability: 0.589
[17]; first compound 0.8 µM
  relative viability: 0.601
[17]; first compound 2.53 µM
  relative viability: 0.572
[18]; first compound 0.08 µM
  relative viability: 1.02
[18]; first compound 0.253 µM
  relative viability: 1.02
[18]; first compound 0.8 µM
  relative viability: 0.975
[18]; first compound 2.53 µM
  relative viability: 1.04
[19]; first compound 0.08 µM
  relative viability: 1.18
[19]; first compound 0.253 µM
  relative viability: 1.25
[19]; first compound 0.8 µM
  relative viability: 1.05
[19]; first compound 2.53 µM
  relative viability: 0.653

## Oc1nc(-c2ccc(C(F)(F)F)cc2)nc2c1CSCC2 [XAV939] + Cc1nc(Nc2ncc(C(=O)Nc3c(C)cccc3Cl)s2)cc(N2CCN(CCO)CC2)n1 [Dasatinib] (partner 0.075 µM)
[1]; first compound 0.08 µM
  relative viability: 0.519
[1]; first compound 0.253 µM
  relative viability: 0.5
[1]; first compound 0.8 µM
  relative viability: 0.501
[1]; first compound 2.53 µM
  relative viability: 0.526
[20]; first compound 0.08 µM
  relative viability: 0.545
[20]; first compound 0.253 µM
  relative viability: 0.463
[20]; first compound 0.8 µM
  relative viability: 0.51
[20]; first compound 2.53 µM
  relative viability: 0.435
[2]; first compound 0.08 µM
  relative viability: 0.164
[2]; first compound 0.253 µM
  relative viability: 0.207
[2]; first compound 0.8 µM
  relative viability: 0.201
[2]; first compound 2.53 µM
  relative viability: 0.147
[3]; first compound 0.08 µM
  relative viability: 0.166
[3]; first compound 0.253 µM
  relative viability: 0.147
[3]; first compound 0.8 µM
  relative viability: 0.211
[3]; first compound 2.53 µM
  relative viability: 0.188
[4]; first compound 0.08 µM
  relative viability: 0.503
[4]; first compound 0.253 µM
  relative viability: 0.56
[4]; first compound 0.8 µM
  relative viability: 0.591
[4]; first compound 2.53 µM
  relative viability: 0.457
[5]; first compound 0.08 µM
  relative viability: 0.262
[5]; first compound 0.253 µM
  relative viability: 0.31
[5]; first compound 0.8 µM
  relative viability: 0.27
[5]; first compound 2.53 µM
  relative viability: 0.399
[6]; first compound 0.08 µM
  relative viability: 0.444
[6]; first compound 0.8 µM
  relative viability: 0.486
[6]; first compound 2.53 µM
  relative viability: 0.228
[7]; first compound 0.08 µM
  relative viability: 0.294
[7]; first compound 0.253 µM
  relative viability: 0.299
[7]; first compound 0.8 µM
  relative viability: 0.32
[7]; first compound 2.53 µM
  relative viability: 0.287
[8]; first compound 0.08 µM
  relative viability: 0.348
[8]; first compound 0.253 µM
  relative viability: 0.378
[8]; first compound 0.8 µM
  relative viability: 0.315
[8]; first compound 2.53 µM
  relative viability: 0.273
[9]; first compound 0.08 µM
  relative viability: 0.321
[9]; first compound 0.253 µM
  relative viability: 0.278
[9]; first compound 0.8 µM
  relative viability: 0.282
[9]; first compound 2.53 µM
  relative viability: 0.23
[10]; first compound 0.08 µM
  relative viability: 0.501
[10]; first compound 0.253 µM
  relative viability: 0.476
[10]; first compound 0.8 µM
  relative viability: 0.419
[10]; first compound 2.53 µM
  relative viability: 0.357
[11]; first compound 0.08 µM
  relative viability: 0.353
[11]; first compound 0.253 µM
  relative viability: 0.488
[11]; first compound 0.8 µM
  relative viability: 0.416
[11]; first compound 2.53 µM
  relative viability: 0.654
[12]; first compound 0.08 µM
  relative viability: 0.37
[12]; first compound 0.253 µM
  relative viability: 0.398
[12]; first compound 0.8 µM
  relative viability: 0.338
[12]; first compound 2.53 µM
  relative viability: 0.399
[21]; first compound 0.08 µM
  relative viability: 0.982
[21]; first compound 0.253 µM
  relative viability: 0.812
[21]; first compound 0.8 µM
  relative viability: 0.465
[21]; first compound 2.53 µM
  relative viability: 0.779
[13]; first compound 0.08 µM
  relative viability: 0.288
[13]; first compound 0.253 µM
  relative viability: 0.196
[13]; first compound 0.8 µM
  relative viability: 0.285
[13]; first compound 2.53 µM
  relative viability: 0.204
[14]; first compound 0.08 µM
  relative viability: 0.512
[14]; first compound 0.253 µM
  relative viability: 0.397
[14]; first compound 0.8 µM
  relative viability: 0.334
[14]; first compound 2.53 µM
  relative viability: 0.336
[22]; first compound 0.08 µM
  relative viability: 0.16
[22]; first compound 0.253 µM
  relative viability: 0.166
[22]; first compound 0.8 µM
  relative viability: 0.175
[22]; first compound 2.53 µM
  relative viability: 0.172
[15]; first compound 0.08 µM
  relative viability: 0.542
[15]; first compound 0.253 µM
  relative viability: 0.396
[15]; first compound 0.8 µM
  relative viability: 0.427
[15]; first compound 2.53 µM
  relative viability: 0.408
[16]; first compound 0.08 µM
  relative viability: 0.385
[16]; first compound 0.253 µM
  relative viability: 0.403
[16]; first compound 0.8 µM
  relative viability: 0.355
[16]; first compound 2.53 µM
  relative viability: 0.247
[17]; first compound 0.08 µM
  relative viability: 0.877
[17]; first compound 0.253 µM
  relative viability: 0.809
[17]; first compound 0.8 µM
  relative viability: 0.87
[17]; first compound 2.53 µM
  relative viability: 0.725
[23]; first compound 0.08 µM
  relative viability: 0.497
[23]; first compound 0.253 µM
  relative viability: 0.501
[23]; first compound 0.8 µM
  relative viability: 0.444
[23]; first compound 2.53 µM
  relative viability: 0.414
[18]; first compound 0.08 µM
  relative viability: 0.349
[18]; first compound 0.253 µM
  relative viability: 0.297
[18]; first compound 0.8 µM
  relative viability: 0.393
[18]; first compound 2.53 µM
  relative viability: 0.437
[19]; first compound 0.08 µM
  relative viability: 0.331
[19]; first compound 0.253 µM
  relative viability: 0.323
[19]; first compound 0.8 µM
  relative viability: 0.263
[19]; first compound 2.53 µM
  relative viability: 0.288
